In assay [1] the target is T1, human recombinant PTP1B (1-302) (Homo sapiens, UniProt P18031).
T1 construct: The human recombinant PTP1B (1-302 aa) and LMW-PTP (full-length) were expressed as fusion proteins; polyhistidine (N); made in house; host or cells: E. coli BL21(DE3) pLysS
T1 sequence (P18031 1-302): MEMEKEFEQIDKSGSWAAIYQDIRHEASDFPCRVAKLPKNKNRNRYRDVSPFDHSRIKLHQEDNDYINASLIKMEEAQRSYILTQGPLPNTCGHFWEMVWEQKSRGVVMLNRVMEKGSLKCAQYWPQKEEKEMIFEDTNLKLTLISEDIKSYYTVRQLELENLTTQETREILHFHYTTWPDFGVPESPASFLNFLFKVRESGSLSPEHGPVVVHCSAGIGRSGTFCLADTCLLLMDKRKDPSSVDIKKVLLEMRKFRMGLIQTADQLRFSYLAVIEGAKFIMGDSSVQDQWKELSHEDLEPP
The assay is described as follows: PTP1B activity / inhibition assay (p-NPP hydrolysis). The assay is classed as biochemical. How it is done:
PTP1B activity was determined as previously described. Briefly, each assay was started by adding an aliquot of human recombinant PTP1B (1-302) in the assay buffer (0.075 M β,β-dimethylglutarate pH 7.0, containing 1 mM EDTA, 0.1 mM DTT, and p-nitrophenylphosphate (p-NPP)). All reactions were performed at 37 °C in a final volume of 1 mL. After the incubation time, the reactions were stopped by adding 2 mL of 0.1 M KOH to the samples. The concentration of the released p-nitrophenol was determined by measuring the absorbance at 400 nm in a 1 cm pathlength cuvette. One unit of enzyme activity is the amount that catalyses the conversion of 1 μmol of substrate/min in the above assay conditions.
(§1) PE was dissolved in DMSO at a final concentration of 10 mM and added to the assay mixture containing 10 mU of purified AR (84 nM on the basis of a 34 KDa molecular weight) or 8 mU purified PTP1B (52 nM on the basis of a 36 KDa molecular weight). The reaction was started by the addition of the substrate. The DMSO concentration in the assays for AR determination was kept constant at 0.7 % (v/v) in order to avoid effects on AR activity. The inhibitory effect of PE was determined by measuring the reaction rates in the presence of a fixed substrate concentration (2.5 mM p-NPP and 0.8 mM L-idose for PTP1B and AR, respectively) and increasing inhibitor concentrations (at least 14-16 different concentrations). The IC50 (the inhibitor concentration able to decrease the enzymatic activity up to 50%) values were determined by nonlinear regression analysis using Prism GraphPad 6.0 (GraphPad Software, San Diego, CA, USA), fitting experimental data to the following equation: Vi/V0 = Max − Min/1 + x/IC50^slope + Min where Vi/V0 represents the relative activity calculated in presence of each inhibitor concentration; “Max” and “Min” represent the maximum and minimum value of the activity, respectively; “x” is the concentration of the inhibitor; and “slope” represents the slope of the curve in the transition zone.
(§2) In order to define the mechanism of action of PE, reaction rates were measured in assay mixtures containing different L-idose concentrations (between 0.8 and 6 mM) in the case of AR, and different p-NPP concentrations (between 0.5 and 25 mM) in the case of PTP1B, in the absence and in the presence of different PE concentrations. Data were analysed by Lineweaver–Burk plots. The apparent dissociation constants Ki’ (for the ESI complex) and Ki (for the EI complex) were determined from secondary plots of 1/^appVmax and ^appKM/^appVmax as a function of the inhibitor concentration, respectively.
Figure S3. Determination of IC50 value for PE. […] The amount of p-NP released was determined using a spectrophotometer, measuring the absorbance of samples at 400 nm, using a 1cm path length cuvette. […]

The target in assay [2] is T2, human recombinant AR (Homo sapiens, UniProt P15121).
T2 construct: made in house; host or cells: E. coli BL21(DE3) pLysS
The assay is described as follows: AR activity / inhibition assay (NADPH oxidation, L-idose as substrate). It is filed as biochemical. How it is done: AR activity was determined at 37 °C, as previously described, evaluating the decrease in absorbance at 340 nm linked to NADPH oxidation using a Biochrom Libra S60 spectrophotometer. The standard assay mixture contained 0.25 M sodium phosphate buffer pH 6.8, 0.18 mM NADPH, 2.4 M ammonium sulphate, 0.5 mM EDTA, and 4.7 mM D,L-glyceraldehyde. One unit of enzyme activity is the amount that catalyses the conversion of 1 μmol of substrate/min in the above assay conditions. For AR inhibition studies, L-idose (at the indicated concentrations) was used as substrate in the conditions described above.
as §1, §2

Assay [3] addresses T2, human recombinant AR. Kind of assay: Reversibility of AR inhibition by dialysis. The assay is classed as biochemical. How it is done:
(§3) The mixture was then extensively dialysed on Amicon ultrafiltration membrane (cut-off 3 KDa) against 10 mM sodium phosphate buffer, pH 7.0. After dialysis, the enzyme activity was again measured using 0.8 mM L-idose as substrate and compared to that of a mixture treated in the same conditions but in the absence of inhibitor. In order to evaluate the reversibility of the inhibitory action on PTP1B, 8 mU of PTP1B was incubated in the presence of a saturating concentration of PE (3 µM) and then incubated at 37 °C for 1 h. After this time, an aliquot of solution was withdrawn and extensively diluted in the assay buffer containing 2.5 mM of p-NPP. Residual activity of PTP1B was determined by calculating the amount of pNP released by measuring the absorbance of solution at 400 nm.

The target of assay [4] is T1, human recombinant PTP1B (1-302). Kind of assay: Reversibility of PTP1B inhibition, dilution assay. The assay is classed as biochemical. How it is done: as §3
Figure S3. Determination of IC50 value for PE. An aliquot of PTP1B (8 mU) was incubated in the presence of increasing PE concentration in the assay buffer containing 2.5 mM pNPP. After 30 minutes, the reactions were stopped by adding 2 mL of 0.1 M KOH solution. The amount of p-NP released was determined using a spectrophotometer, measuring the absorbance of samples at 400 nm, using a 1cm path length cuvette. All tests were carried out in triplicate. Data obtained were normalized respect to control test and fitted using an opportune equation (see Material and method […]
Figure S4. Dilution assay. […]

The test system of another assay is HepG2 cells. The assay is described as follows: Analysis of the insulin signalling pathway (Western blot of IR and Akt phosphorylation). The assay is classed as cell-based. The settings on record: HepG2, PE 25 µM combined with insulin 10 nM, 30 minutes. On the procedure: To evaluate whether PE is able to improve the insulin signalling pathway in vitro, we analysed the effect of the compound on HepG2 cell line. For this purpose, we treated HepG2 cells with PE (25 µM final concentration) for 30 minutes in the presence or absence of insulin (10 nM). After treatment, cells were lysed and cellular extracts were analysed to evaluate the phosphorylation status of insulin receptor (IR) and Akt, a kinase downstream IR (Figure 7).
Figure 7 Effect of PE on the insulin signalling pathway. Panel A: Western blot image; Panel B: quantitation of Western blot carried out using Kodak MI software. Data shown were normalized with respect to the control sample. All tests were carried out in triplicate. […]
In order to evaluate the effect of PE on the insulin signalling pathway, HepG2 cells were seeded in 35-mm culture dishes and, after 24 hours, were incubated for 30 minutes with starvation medium (DMEM supplemented with 2 mM glutamine, 100 U/mL penicillin, and 100 μg/mL streptomycin) containing 25 μM of PE and/or 10 nM insulin (Humalog, lispro insulin). […] Cellular extracts were boiled for 5 minutes, and then an aliquot (20 µg of protein) was analysed by SDS-PAGE and Western blot to evaluate both total and phosphorylated expression levels of Akt and IR. β-actin was used as a reference protein to normalise protein loading.
(In western blotting, separated proteins are transferred to a membrane and probed.)

The source of these data is article PMC8540617, “Dual Targeting of PTP1B and Aldose Reductase with Marine Drug Phosphoeleganin: A Promising Strategy for Treatment of Type 2 Diabetes” (Marine Drugs, 2021).

Molecules are shown by their SMILES.

Consider `CCCCCCCCCCCCCCC(OP(=O)(O)O)C(O)CCC(O)C(O)CCC(O)CCCCCCC(=O)NCC(=O)O` (centres unmarked) [PE, phosphoeleganin], for which the IC50 – broadly, the concentration needed to halve the response being measured – came out at 1.3 ± 0.04 µM in assay [1] (2.5 mM p-NPP, pH 7.0, 37 °C, 8 mU PTP1B) and 28.7 ± 1.1 µM on human recombinant AR [2] (0.8 mM L-idose, pH 6.8, 37 °C, 10 mU AR). Also, the “Type of inhibition of PTP1B” value in assay [1] (Lineweaver–Burk analysis) is “pure non-competitive inhibitor”. The “K'i (ESI complex) for PTP1B” value in assay [1] (secondary plot of 1/appVmax vs PE concentration, p-NPP 0.5-25 mM) was determined as 0.7 ± 0.1 µM. Also, the Ki (usually the dissociation constant of the complex between target and ligand, obtained from inhibition or displacement) amounted to 0.7 ± 0.1 µM in assay [1] (secondary plot of appKM/appVmax vs PE concentration, p-NPP 0.5-25 mM, read-out: Ki (EI complex) for PTP1B) and 47 ± 1 µM at human recombinant AR [2] (secondary plot of appKM/appVmax vs PE concentration, L-idose 0.8-6 mM, read-out: Ki (EI complex) for AR). The “Type of inhibition of AR” value on human recombinant AR [2] (Lineweaver–Burk analysis) is given as “mixed inhibitor”. The “K'i (ESI complex) for AR” value at human recombinant AR [2] (secondary plot of 1/appVmax vs PE concentration, L-idose 0.8-6 mM) came to 36 ± 1 µM. The “Reversibility of AR inhibition” value at human recombinant AR [3] is reported as “reversible inhibitor”. Besides, the “AR enzyme activity recovered after removal of inhibitor by extensive dialysis” value at human recombinant AR [3] (10 mU AR incubated 90 min at 0 °C with PE 3 mM, then dialysed, 0.8 mM L-idose) amounted to 100%. In addition, in assay [4], the “Reversibility of PTP1B inhibition” value was “reversible inhibitor”. In addition, the “PTP1B activity recovered after dilution” value in assay [4] (incubation with saturating PE (3 µM) at 37 °C, then dilution in buffer with 2.5 mM p-NPP) is on record as “almost completely”. In the assay on HepG2 cells, the Akt phosphorylation level result is given as “significant increase”. The IR phosphorylation level entry with HepG2 cells is on record as “significant increase”.
